Test results taken from US11760722B2 (priority 2022, dated 2023).
Read-outs that look alike come from different tables or passages of the source.

Tested on: SARS-CoV-2 Delta USA/MD-HP05647/2021 (Lineage B.1.617.2)
Experiment: microbe, parasite or virus in culture
Type: cell-based
Conditions: read-out: Vero E6 Delta CPE/EC50
[1] = Severe acute respiratory syndrome coronavirus 2, Vero C1008, 4 h

| Structure (SMILES) | EC50 [1] [nM] | EC50 [nM] |
| --- | --- | --- |
| CNC(=S)N[C@H](C(=O)N1C[C@H]2[C@@H]([C@H]1C(=O)N[C@H](C#N)C[C@@H]1CCNC1=O)C2(C)C)C(C)(C)C [Compound 35] | 77.9 | 148 |
| COc1ccc(S(=O)(=O)N[C@H](C(=O)N2C[C@H]3[C@@H]([C@H]2C(=O)N[C@H](C#N)C[C@@H]2CCNC2=O)C3(C)C)C(C)(C)C)cc1 [Compound 101] | 0.31 | – |
| CC(C)(C)[C@H](NC(=O)C(F)(Cl)C(F)(F)F)C(=O)N1C[C@H]2[C@@H]([C@H]1C(=O)N[C@H](C#N)C[C@@H]1CCNC1=O)C2(C)C (some centres unmarked) [Compound 75] | 45 | 50 |
| CC(C)(C)[C@H](NS(=O)(=O)c1ccc2c(c1)CCO2)C(=O)N1C[C@H]2[C@@H]([C@H]1C(=O)N[C@H](C#N)C[C@@H]1CCNC1=O)C2(C)C [Compound 83] | 20.4 | – |
| CC(C)(C)c1ccc(S(=O)(=O)N[C@H](C(=O)N2C[C@H]3[C@@H]([C@H]2C(=O)N[C@H](C#N)C[C@@H]2CCNC2=O)C3(C)C)C(C)(C)C)s1 [Compound 117] | 337 | – |
| CC(C)(C)[C@H](NC(=O)CC#N)C(=O)N1C[C@H]2[C@@H]([C@H]1C(=O)N[C@H](C#N)C[C@@H]1CCNC1=O)C2(C)C [Compound 33] | 940 | – |
| CC(C)(C)[C@H](NC(=O)NC1(CS(=O)(=O)C(C)(C)C)CCCCC1)C(=O)N1C[C@H]2[C@@H]([C@H]1C(=O)N[C@H](C#N)C[C@@H]1CCNC1=O)C2(C)C [Compound 16] | 2980 | – |
| Cc1cc(S(=O)(=O)N[C@H](C(=O)N2C[C@H]3[C@@H]([C@H]2C(=O)N[C@H](C#N)C[C@@H]2CCNC2=O)C3(C)C)C(C)(C)C)sc1Cl [Compound 168] | 21.8 | – |
| CC(C)[C@H]1CC[C@H](C)C[C@@H]1OCC(=O)N[C@H](C(=O)N1C[C@H]2[C@@H]([C@H]1C(=O)N[C@H](C#N)C[C@@H]1CCNC1=O)C2(C)C)C(C)(C)C [Compound 110] | 2020 | – |
| Cc1ccc(S(=O)(=O)N[C@H](C(=O)N2C[C@H]3[C@@H]([C@H]2C(=O)N[C@H](C#N)C[C@@H]2CCNC2=O)C3(C)C)C(C)(C)C)s1 [Compound 118] | 23.5 | – |
| CC(C)(C)[C@H](NS(=O)(=O)c1cccc2ccccc12)C(=O)N1C[C@H]2[C@@H]([C@H]1C(=O)N[C@H](C#N)C[C@@H]1CCNC1=O)C2(C)C [Compound 85] | < 4.5 | – |
| CC(C)(C)[C@H](NC(=O)C12CC(F)(C1)C2)C(=O)N1C[C@H]2[C@@H]([C@H]1C(=O)N[C@H](C#N)C[C@@H]1CCNC1=O)C2(C)C [Compound 34] | 275 | – |
| CC(C)(C)[C@H](NS(=O)(=O)c1ccc(Cl)s1)C(=O)N1C[C@H]2[C@@H]([C@H]1C(=O)N[C@H](C#N)C[C@@H]1CCNC1=O)C2(C)C [Compound 54] | < 4.5 | – |
| CC(C)(C)[C@H](NS(=O)(=O)c1ccc(C(F)(F)F)cc1)C(=O)N1C[C@H]2[C@@H]([C@H]1C(=O)N[C@H](C#N)C[C@@H]1CCNC1=O)C2(C)C [Compound 90] | 3.4 | – |
| Cc1ccc(S(=O)(=O)N[C@H](C(=O)N2C[C@H]3[C@@H]([C@H]2C(=O)N[C@H](C#N)C[C@@H]2CCNC2=O)C3(C)C)C(C)(C)C)cc1 [Compound 96] | < 4.5 | – |
| CC1(C)[C@@H]2[C@@H](C(=O)N[C@H](C#N)C[C@@H]3CCNC3=O)N(C(=O)[C@@H](NC(=O)C(F)(F)F)C34CC(C3)C4)C[C@@H]21 [Compound 50] | 571 | – |
| C=C(F)C(=O)N[C@H](C(=O)N1C[C@H]2[C@@H]([C@H]1C(=O)N[C@H](C#N)C[C@@H]1CCNC1=O)C2(C)C)C(C)(C)C [Compound 66] | 93.5 | 97.8 |
| CC(C)(C)[C@H](NS(=O)(=O)c1ccc(OC(F)(F)F)cc1)C(=O)N1C[C@H]2[C@@H]([C@H]1C(=O)N[C@H](C#N)C[C@@H]1CCNC1=O)C2(C)C [Compound 89] | 61.8 | – |
| CCNC(=S)N[C@H](C(=O)N1C[C@H]2[C@@H]([C@H]1C(=O)N[C@H](C#N)C[C@@H]1CCNC1=O)C2(C)C)C(C)(C)C [Compound 72] | 261 | – |
| CC(C)(C)[C@H](NS(=O)(=O)c1cc2ccccc2s1)C(=O)N1C[C@H]2[C@@H]([C@H]1C(=O)N[C@H](C#N)C[C@@H]1CCNC1=O)C2(C)C [Compound 111] | < 4.5 | – |
| CC(C)(C)[C@H](NS(=O)(=O)c1ccc2ccccc2c1)C(=O)N1C[C@H]2[C@@H]([C@H]1C(=O)N[C@H](C#N)C[C@@H]1CCNC1=O)C2(C)C [Compound 102] | < 4.5 | – |
| CC(C)(C)[C@H](NC(=O)c1ccc2c(c1)CCC2)C(=O)N1C[C@H]2[C@@H]([C@H]1C(=O)N[C@H](C#N)C[C@@H]1CCNC1=O)C2(C)C [Compound 120] | 8000 | – |
| CC(C)(C)[C@H](NS(=O)(=O)c1ccccc1)C(=O)N1C[C@H]2[C@@H]([C@H]1C(=O)N[C@H](C#N)C[C@@H]1CCNC1=O)C2(C)C [Compound 95] | 10.7 | – |

| Structure (SMILES) | EC50 [1] [nM] | EC50 [nM] |
| --- | --- | --- |
| CC(C)(C)[C@H](NC(=S)NC1CC1)C(=O)N1C[C@H]2[C@@H]([C@H]1C(=O)N[C@H](C#N)C[C@@H]1CCNC1=O)C2(C)C [Compound 76] | 834 | – |
| CC(C)(C)[C@H](NC(=O)CS(C)(=O)=O)C(=O)N1C[C@H]2[C@@H]([C@H]1C(=O)N[C@H](C#N)C[C@@H]1CCNC1=O)C2(C)C [Compound 64] | 1330 | – |
| CC(C)(C)[C@H](NC(=O)Cc1ccc2c(c1)CCC2)C(=O)N1C[C@H]2[C@@H]([C@H]1C(=O)N[C@H](C#N)C[C@@H]1CCNC1=O)C2(C)C [Compound 82] | 9.52 | – |
| CN(C)[C@@H]1C[C@@H](C(=O)N[C@H](C#N)C[C@@H]2CCNC2=O)N(C(=O)[C@@H](NC(=O)C(F)(F)F)C(C)(C)C)C1 [Compound 116] | 4000 | – |
| Cc1csc(S(=O)(=O)N[C@H](C(=O)N2C[C@H]3[C@@H]([C@H]2C(=O)N[C@H](C#N)C[C@@H]2CCNC2=O)C3(C)C)C(C)(C)C)c1 [Compound 112] | 63.4 | – |
| CCCc1ccc(S(=O)(=O)N[C@H](C(=O)N2C[C@H]3[C@@H]([C@H]2C(=O)N[C@H](C#N)C[C@@H]2CCNC2=O)C3(C)C)C(C)(C)C)s1 [Compound 171] | 80.8 | – |
| CC(C)(C)[C@H](NS(=O)(=O)c1ccns1)C(=O)N1C[C@H]2[C@@H]([C@H]1C(=O)N[C@H](C#N)C[C@@H]1CCNC1=O)C2(C)C [Compound 122] | 180 | – |
| CC(C)(C)[C@H](NS(=O)(=O)c1cccs1)C(=O)N1C[C@H]2[C@@H]([C@H]1C(=O)N[C@H](C#N)C[C@@H]1CCNC1=O)C2(C)C [Compound 100] | 36.8 | – |
| CC(C)(C)[C@H](NS(=O)(=O)N1CCOCC1)C(=O)N1C[C@H]2[C@@H]([C@H]1C(=O)N[C@H](C#N)C[C@@H]1CCNC1=O)C2(C)C [Compound 49] | 1580 | – |
| CN(C)C(=S)N[C@H](C(=O)N1C[C@H]2[C@@H]([C@H]1C(=O)N[C@H](C#N)C[C@@H]1CCNC1=O)C2(C)C)C(C)(C)C [Compound 77] | 1540 | – |
| CC(C)(C)[C@H](NS(=O)(=O)c1ccc(F)s1)C(=O)N1C[C@H]2[C@@H]([C@H]1C(=O)N[C@H](C#N)C[C@@H]1CCNC1=O)C2(C)C [Compound 113] | 16.6 | – |
| CC(C)(C)[C@H](NC(=O)c1cnc2[nH]ccc2c1)C(=O)N1C[C@H]2[C@@H]([C@H]1C(=O)N[C@H](C#N)C[C@@H]1CCNC1=O)C2(C)C [Compound 32] | 101000 | – |
| CN(C)S(=O)(=O)N[C@H](C(=O)N1C[C@H]2[C@@H]([C@H]1C(=O)N[C@H](C#N)C[C@@H]1CCNC1=O)C2(C)C)C(C)(C)C [Compound 47, (1R,2S,5S)—N—((S)-1-cyano-2-((S)-2-oxopyrrolidin-3-yl)ethyl)-3-((S)-2-((N,N-dimethylsulfamoyl)amino)-3,3-dimethylbutanoyl)-6,6-dimethyl-3-azabicyclo[3.1.0]hexane-2-carboxamide] | 242 | – |
| CC(C)(C)[C@H](NS(=O)(=O)c1sccc1Cl)C(=O)N1C[C@H]2[C@@H]([C@H]1C(=O)N[C@H](C#N)C[C@@H]1CCNC1=O)C2(C)C [Compound 114] | 16.4 | – |
| CC(C)(C)[C@H](NC(=O)C1(C(F)(F)F)CC1)C(=O)N1C[C@H]2[C@@H]([C@H]1C(=O)N[C@H](C#N)C[C@@H]1CCNC1=O)C2(C)C [Compound 151] | 1630 | – |
| CC(C)(C)[C@H](NC(=O)C(F)(F)C(F)(F)Cl)C(=O)N1C[C@H]2[C@@H]([C@H]1C(=O)N[C@H](C#N)C[C@@H]1CCNC1=O)C2(C)C [Compound 80] | 20.2 | – |
| CC(C)(C)[C@H](NS(=O)(=O)c1cccnc1)C(=O)N1C[C@H]2[C@@H]([C@H]1C(=O)N[C@H](C#N)C[C@@H]1CCNC1=O)C2(C)C [Compound 93] | 372 | – |
| CC(C)(C)[C@H](NC(=O)C12CC(C1)C2)C(=O)N1C[C@H]2[C@@H]([C@H]1C(=O)N[C@H](C#N)C[C@@H]1CCNC1=O)C2(C)C [Compound 20] | 377 | 392 |
| CC(C)(C)[C@H](NC(=O)C(F)(F)C(F)(F)C(F)(F)F)C(=O)N1C[C@H]2[C@@H]([C@H]1C(=O)N[C@H](C#N)C[C@@H]1CCNC1=O)C2(C)C [Compound 133] | 437 | – |
| CC(C)(C)[C@H](NS(=O)(=O)c1ccc(F)cc1)C(=O)N1C[C@H]2[C@@H]([C@H]1C(=O)N[C@H](C#N)C[C@@H]1CCNC1=O)C2(C)C [Compound 53, (1R,2S,5S)—N—((S)-1-cyano-2-((S)-2-oxopyrrolidin-3-yl)ethyl)-3-((S)-2-((4-fluorophenyl)sulfonamido)-3,3-dimethylbutanoyl)-6,6-dimethyl-3-azabicyclo[3.1.0]hexane-2-carboxamide] | 14.9 | 20.4 |
| CC(C)(C)[C@H](NS(=O)(=O)c1ccc(F)c(F)c1)C(=O)N1C[C@H]2[C@@H]([C@H]1C(=O)N[C@H](C#N)C[C@@H]1CCNC1=O)C2(C)C [Compound 99] | 22.2 | – |
| CC(C)(C)NC(=O)N[C@H](C(=O)N1C[C@H]2[C@@H]([C@H]1C(=O)N[C@H](C#N)C[C@@H]1CCNC1=O)C2(C)C)C(C)(C)C [Compound 87] | 577 | – |
